US9056111B1, “Selective efflux inhibitors and related pharmaceutical compositions and methods of treatment” (STC.UNM, priority 2011, dated 2015)
“Also recorded” adds a separate entry of the source.

Experiments:
[1] = test system: ABCG2 over-expressing Igrov1/T8 tumors; assay: ABCG2 resistant Igrov1/T8 tumor xenograft, combination with topotecan; type: in vivo, CB-17 SCID mice
Procedure: Specific-pathogen-free adult CB-17 female SCID mice (5-6 weeks of age) weighing 20-25 g, are purchased. Briefly, ABCG2 over-expressing Igrov1/T8 cells are injected (5×10^6 cells/mouse). Prior to injection, Igrov1/T8 cells are maintained in topotecan in order to assure continuous expression of ABCG2. Tumors are allowed to grow for 3-4 weeks or until tumor volumes are greater than ˜100 cubic millimeters, at which time they are stratified into treatment groups. Treatment is administered and we observe the size of the tumor and weight of the mouse over a 7 day period. At the end of 7 days, we: 1) sacrifice the animal; 2) measure and weigh the tumor (if present); 3) analyze the histology of the tumor as well as other organs for evidence of toxicity; and 4) measure the expression of ABCG2 receptors on the tumor to determine if in vivo growth has altered ABCG2 expression. In our initial studies, we have generally observed high survival at 4 weeks (>90%) which escalates rapidly with near 100% mortality by 6 weeks. This approach is well described elsewhere.^9
Tumor-bearing mice were injected with either 150 nM TPT, 100 nM SID 88095709 (probe resupply), or 500 nM SID 85752814 (original SMR hit).
Igrov1/T8 cells were injected into the hind limbs of CB-17 SCID mice at a concentration of 1×10^7 cells in 200 μL, n of 3 per condition. The tumor was grown until the volume was in the range of 75 mm^3 to 250 mm^3. […] Injections were repeated daily and the size of the tumor was determined as a fraction of the starting size. After four days the mice were sacrificed and any recurring tumor was verified by light microscopy examination of histological sections. Mice were studied and maintained in accordance with guidelines of our Institutional Animal Research Committee at UNM HSC.

[2] = test system: parental Igrov1 cells; assay: Topotecan killing of parental cells; type: cell-based; settings: Homo sapiens, IGROV-1
[3] = test system: resistant Igrov1/T8 cells; assay: Topotecan killing of resistant cells; type: cell-based; settings: Homo sapiens, IGROV-1

For CC[C@@]1(O)C(=O)OCc2c1cc1n(c2=O)Cc2cc3c(CN(C)C)c(O)ccc3nc2-1 [Topotecan, reference compound], the “tumor size, topotecan alone” value ([1]; 100 nM topotecan alone, Example 3) was “No reduction in size”, the “tumor size, single agent” value ([1]; 150 nM TPT, 100 nM SID 88095709 or 500 nM SID 85752814 alone, listed as TPT) was “remained the same or increased; also recorded: did not affect the growth of tumors” and the EC50 [2] was 0.007 µM. The EC50 [3] was 0.311 µM.
